From PubChem BioAssay AID1963863 (Molecular Pharmacology Branch, DTP, NCI, 2024)

Tested on: 931267-113-T-J1-PDC KRAS spheroid with HUVEC/MSC, viability
Test: Anticancer human tumor 931267-113-T-J1-PDC patient-derived colon adenocarcinoma cell line growth inhibition [KRAS2]
Settings: for IC50: curve of first compound; for viability, T/C: stronger effect = lower value
Outline: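 KRAS-mutant tumor cells were grown as spheroids with HUVEC endothelial cells and human MSCs as stroma. Targeted agents were tested alone and with KRAS pathway inhibitors. Doses started at or near clinical Cmax, or 10 microM, descending half-log.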

[1] = second compound 0.0316 µM, first compound 0.0316 µM
[2] = second compound 0.0316 µM, first compound 0.1 µM
[3] = second compound 0.0316 µM, first compound 0.316 µM
[4] = second compound 0.0316 µM, first compound 1 µM
[5] = second compound 0.0316 µM, first compound 3.16 µM
[6] = second compound 0.0316 µM, first compound 10 µM
[7] = second compound 0.1 µM, first compound 0.0316 µM
[8] = second compound 0.1 µM, first compound 0.1 µM
[9] = second compound 0.1 µM, first compound 0.316 µM
[10] = second compound 0.1 µM, first compound 1 µM
[11] = second compound 0.1 µM, first compound 3.16 µM
[12] = second compound 0.1 µM, first compound 10 µM
[13] = second compound 0.316 µM, first compound 0.0316 µM
[14] = second compound 0.316 µM, first compound 0.1 µM
[15] = second compound 0.316 µM, first compound 0.316 µM
[16] = second compound 0.316 µM, first compound 1 µM
[17] = second compound 0.316 µM, first compound 3.16 µM
[18] = second compound 0.316 µM, first compound 10 µM
[19] = second compound 1 µM, first compound 0.0316 µM
[20] = second compound 1 µM, first compound 0.1 µM
[21] = second compound 1 µM, first compound 0.316 µM
[22] = second compound 1 µM, first compound 1 µM
[23] = second compound 1 µM, first compound 3.16 µM
[24] = second compound 1 µM, first compound 10 µM
[25] = second compound 3.16 µM, first compound 0.0316 µM
[26] = second compound 3.16 µM, first compound 0.1 µM
[27] = second compound 3.16 µM, first compound 0.316 µM
[28] = second compound 3.16 µM, first compound 1 µM
[29] = second compound 3.16 µM, first compound 3.16 µM
[30] = second compound 3.16 µM, first compound 10 µM
[31] = second compound 0.0316 µM, first compound 0.00316 µM
[32] = second compound 0.0316 µM, first compound 0.01 µM
[33] = second compound 0.1 µM, first compound 0.00316 µM
[34] = second compound 0.1 µM, first compound 0.01 µM
[35] = second compound 0.316 µM, first compound 0.00316 µM
[36] = second compound 0.316 µM, first compound 0.01 µM
[37] = second compound 1 µM, first compound 0.00316 µM
[38] = second compound 1 µM, first compound 0.01 µM
[39] = second compound 3.16 µM, first compound 0.00316 µM
[40] = second compound 3.16 µM, first compound 0.01 µM
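Also: compound exposure lasted 7 days before the readout.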
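For viability, T/C in this document: 100% = DMSO vehicle control viability.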

CC(C)NCC(C(=O)N1CCN(c2ncnc3c2C(C)CC3O)CC1)c1ccc(Cl)cc1 (stereo not given) + C=CC(=O)N1CCN(c2nc(OCC3CCCN3C)nc3c2CCN(c2cccc4cccc(C)c24)C3)CC1CC#N
IC50 (second compound 0.0316 µM): > 10000 nM | IC50 (second compound 0.1 µM): 6280 nM | IC50 (second compound 0.316 µM): 5100 nM | IC50 (second compound 1 µM): 1810 nM | IC50 (second compound 3.16 µM): < 31.6 nM | viability, T/C [1]: 111% | viability, T/C [2]: 86% | viability, T/C [3]: 72.4% | viability, T/C [4]: 79.8% | viability, T/C [5]: 64.3% | viability, T/C [6]: 50% | viability, T/C [7]: 96.8% | viability, T/C [8]: 86.4% | viability, T/C [9]: 83.1% | viability, T/C [10]: 101% | viability, T/C [11]: 62.1% | viability, T/C [12]: 41.8% | viability, T/C [13]: 100% | viability, T/C [14]: 89.6% | viability, T/C [15]: 95.4% | viability, T/C [16]: 64.7% | viability, T/C [17]: 73% | viability, T/C [18]: 30.4% | viability, T/C [19]: 79.4% | viability, T/C [20]: 83.1% | viability, T/C [21]: 64.5% | viability, T/C [22]: 60.1% | viability, T/C [23]: 42.2% | viability, T/C [24]: 18.4% | viability, T/C [25]: 1.12% | viability, T/C [26]: 0.47% | viability, T/C [27]: 0.29% | viability, T/C [28]: 0.37% | viability, T/C [29]: 0.61% | viability, T/C [30]: 0.46%

CC1(C)CCC(CN2CCN(c3ccc(C(=O)NS(=O)(=O)c4ccc(NCC5CCOCC5)c([N+](=O)[O-])c4)c(Oc4cnc5[nH]ccc5c4)c3)CC2)=C(c2ccc(Cl)cc2)C1 + C=CC(=O)N1CCN(c2nc(OCC3CCCN3C)nc3c2CCN(c2cccc4cccc(C)c24)C3)CC1CC#N
IC50 (second compound 0.0316 µM): 1960 nM | IC50 (second compound 0.1 µM): 2360 nM | IC50 (second compound 0.316 µM): 1900 nM | IC50 (second compound 1 µM): 1550 nM | IC50 (second compound 3.16 µM): < 31.6 nM | viability, T/C [1]: 107% | viability, T/C [2]: 93.6% | viability, T/C [3]: 102% | viability, T/C [4]: 83% | viability, T/C [5]: 26.2% | viability, T/C [6]: 0.37% | viability, T/C [7]: 110% | viability, T/C [8]: 120% | viability, T/C [9]: 97.5% | viability, T/C [10]: 106% | viability, T/C [11]: 31% | viability, T/C [12]: 0.82% | viability, T/C [13]: 114% | viability, T/C [14]: 94.8% | viability, T/C [15]: 89.3% | viability, T/C [16]: 94.6% | viability, T/C [17]: 14.8% | viability, T/C [18]: 0.28% | viability, T/C [19]: 102% | viability, T/C [20]: 84.3% | viability, T/C [21]: 94.5% | viability, T/C [22]: 78% | viability, T/C [23]: 4.65% | viability, T/C [24]: 0.18% | viability, T/C [25]: 0.38% | viability, T/C [26]: 0.51% | viability, T/C [27]: 0.75% | viability, T/C [28]: 0.2% | viability, T/C [29]: 0.34% | viability, T/C [30]: 0.26%

CCN1CCN(Cc2ccc(Nc3ncc(F)c(-c4cc(F)c5nc(C)n(C(C)C)c5c4)n3)nc2)CC1 + C=CC(=O)N1CCN(c2nc(OCC3CCCN3C)nc3c2CCN(c2cccc4cccc(C)c24)C3)CC1CC#N
IC50 (second compound 0.0316 µM): > 1000 nM | IC50 (second compound 0.1 µM): 549 nM | IC50 (second compound 0.316 µM): > 1000 nM | IC50 (second compound 1 µM): 734 nM | IC50 (second compound 3.16 µM): < 3.16 nM | viability, T/C [31]: 108% | viability, T/C [32]: 86% | viability, T/C [1]: 70.7% | viability, T/C [2]: 67.8% | viability, T/C [3]: 65.7% | viability, T/C [4]: 54% | viability, T/C [33]: 83.8% | viability, T/C [34]: 72.2% | viability, T/C [7]: 68.2% | viability, T/C [8]: 67.4% | viability, T/C [9]: 61.8% | viability, T/C [10]: 39.7% | viability, T/C [35]: 93.7% | viability, T/C [36]: 84.2% | viability, T/C [13]: 64.3% | viability, T/C [14]: 60% | viability, T/C [15]: 64.6% | viability, T/C [16]: 48.6% | viability, T/C [37]: 73.8% | viability, T/C [38]: 74.2% | viability, T/C [19]: 77.3% | viability, T/C [20]: 82.4% | viability, T/C [21]: 61.2% | viability, T/C [22]: 45.9% | viability, T/C [39]: 0.66% | viability, T/C [40]: 2.55% | viability, T/C [25]: 0.2% | viability, T/C [26]: 0.23% | viability, T/C [27]: 0.3% | viability, T/C [28]: 0.21%

Cn1ncnc1[C@H]1c2n[nH]c(=O)c3cc(F)cc(c23)N[C@@H]1c1ccc(F)cc1 + C=CC(=O)N1CCN(c2nc(OCC3CCCN3C)nc3c2CCN(c2cccc4cccc(C)c24)C3)CC1CC#N
IC50 (second compound 0.0316 µM): > 100 nM | IC50 (second compound 0.1 µM): > 100 nM | IC50 (second compound 0.316 µM): > 100 nM | IC50 (second compound 1 µM): > 100 nM | IC50 (second compound 3.16 µM): < 0.316 nM | viability, T/C (second compound 0.0316 µM, first compound 0.000316 µM): 118% | viability, T/C (second compound 0.0316 µM, first compound 0.001 µM): 89.7% | viability, T/C [31]: 90% | viability, T/C [32]: 75.5% | viability, T/C [1]: 77.2% | viability, T/C [2]: 80.7% | viability, T/C (second compound 0.1 µM, first compound 0.000316 µM): 102% | viability, T/C (second compound 0.1 µM, first compound 0.001 µM): 90.9% | viability, T/C [33]: 69.8% | viability, T/C [34]: 77.9% | viability, T/C [7]: 78.2% | viability, T/C [8]: 67.3% | viability, T/C (second compound 0.316 µM, first compound 0.000316 µM): 89.9% | viability, T/C (second compound 0.316 µM, first compound 0.001 µM): 66.3% | viability, T/C [35]: 89.9% | viability, T/C [36]: 86% | viability, T/C [13]: 69.8% | viability, T/C [14]: 66.3% | viability, T/C (second compound 1 µM, first compound 0.000316 µM): 76% | viability, T/C (second compound 1 µM, first compound 0.001 µM): 76.5% | viability, T/C [37]: 68.5% | viability, T/C [38]: 80.8% | viability, T/C [19]: 68.8% | viability, T/C [20]: 69.9% | viability, T/C (second compound 3.16 µM, first compound 0.000316 µM): 1.48% | viability, T/C (second compound 3.16 µM, first compound 0.001 µM): 4.65% | viability, T/C [39]: 3.13% | viability, T/C [40]: 15.2% | viability, T/C [25]: 0.64% | viability, T/C [26]: 8.16%
